Measurements from US20050070510A1, “Substituted tetracycline compounds as synergistic antifungal agents” (Paratek Pharmaceuticals, Inc., priority 2001, published 2005).

tested on: COS-1 cells; test: In vitro mammalian cytotoxicity assay (Resazurin)

| SMILES | In Vitro Cytotoxicity |
| --- | --- |
| C=CCCNC(=O)NCc1cc(N(C)C)c2c(c1O)C(=O)C1=C(O)[C@]3(C#N)C(=O)C(C(N)=O)=C(O)[C@@H](N(C)C)[C@]3(N)C[C@]1(N)C2 [MD] | * (toxicities greater than >25 μg/ml are represented by *) |
| CN(C)[C@@H]1C(O)=C(C(N)=O)C(=O)[C@@]2(C#N)C(O)=C3C(=O)c4c(O)cccc4C[C@@]3(N)[C@H](NC(=O)CCN3CCOCC3)[C@@]12N [EZ] | ** (toxicities less than 25 μg/mL are represented by **) |
| CN(C)[C@@H]1C(O)=C(C(N)=O)C(=O)[C@@]2(C#N)C(O)=C3C(=O)c4c(O)c(-c5ccccc5)cc(-c5ccccc5)c4[C@H](N)[C@@]3(N)[C@H](O)[C@@]12N [PX] | ** (toxicities less than 25 μg/mL are represented by **) |
| CN(C)[C@@H]1C(O)=C(C(N)=O)C(=O)[C@@]2(C#N)C(O)=C3C(=O)c4c(O)ccc(-c5ccc(Cl)o5)c4C[C@@]3(N)C[C@@]12N [FV] | ** (toxicities less than 25 μg/mL are represented by **) |
| CN(C)[C@@H]1C(O)=C(C(N)=O)C(=O)[C@@]2(C#N)C(O)=C3C(=O)c4c(O)ccc(C#CC5=CCCCC5)c4C[C@@]3(N)C[C@@]12N [GF] | ** (toxicities less than 25 μg/mL are represented by **) |
| CN(C)[C@@H]1C(O)=C(C(N)=O)C(=O)[C@@]2(C#N)C(O)=C3C(=O)c4c(O)c(C(C)(C)C)cc(CN)c4C[C@@]3(N)C[C@@]12N [RC] | * (toxicities greater than >25 μg/ml are represented by *) |
| CN(C)[C@@H]1C(O)=C(C(N)=O)C(=O)[C@@]2(C#N)C(O)=C3C(=O)c4c(O)c(CN)cc(-c5cccc([N+](=O)O)c5)c4C[C@@]3(N)C[C@@]12N [JP] | * (toxicities greater than >25 μg/ml are represented by *) |
| Cc1ccc(OC(=O)NCc2cc(N(C)C)c3c(c2O)C(=O)C2=C(O)[C@]4(C#N)C(=O)C(C(N)=O)=C(O)[C@@H](N(C)C)[C@]4(N)C[C@]2(N)C3)cc1 [MU] | ** (toxicities less than 25 μg/mL are represented by **) |
| COc1ccc(CNCc2cccc(F)c2)cc1-c1ccc(O)c2c1C[C@@]1(N)C[C@@]3(N)[C@H](N(C)C)C(O)=C(C(N)=O)C(=O)[C@@]3(C#N)C(O)=C1C2=O [NG] | ** (toxicities less than 25 μg/mL are represented by **) |
| C#CCOC(=O)Nc1cc(N(C)C)c2c(c1O)C(=O)C1=C(O)[C@]3(C#N)C(=O)C(C(N)=O)=C(O)[C@@H](N(C)C)[C@]3(N)C[C@]1(N)C2 [SL] | ** (toxicities less than 25 μg/mL are represented by **) |
| CN(C)[C@@H]1C(O)=C(C(N)=O)C(=O)[C@@]2(C#N)C(O)=C3C(=O)c4c(O)ccc(-c5ccc(CNCc6ccccc6)cc5)c4C[C@@]3(N)C[C@@]12N [HP] | ** (toxicities less than 25 μg/mL are represented by **) |
| COc1cccc(C#Cc2cc(N(C)C)c3c(c2O)C(=O)C2=C(O)[C@]4(C#N)C(=O)C(C(N)=O)=C(O)[C@@H](N(C)C)[C@]4(N)C[C@]2(N)C3)c1 [JF] | ** (toxicities less than 25 μg/mL are represented by **) |
| CN(C)[C@@H]1C(O)=C(C(N)=O)C(=O)[C@@]2(C#N)C(O)=C3C(=O)c4c(O)c(CNCC(C)(C)C)cc(CNCC(C)(C)C)c4C[C@@]3(N)C[C@@]12N [TG] | * (toxicities greater than >25 μg/ml are represented by *) |
| COc1ccc(-c2ccc(O)c3c2C[C@@]2(N)C[C@@]4(N)[C@H](N(C)C)C(O)=C(C(N)=O)C(=O)[C@@]4(C#N)C(O)=C2C3=O)cc1 [QF] | ** (toxicities less than 25 μg/mL are represented by **) |
| CN(C)[C@@H]1C(O)=C(C(N)=O)C(=O)[C@@]2(C#N)C(O)=C3C(=O)c4c(O)ccc(C(=O)O)c4C[C@@]3(N)C[C@@]12N [JR] | * (toxicities greater than >25 μg/ml are represented by *) |
| CN(C)[C@@H]1C(O)=C(C(N)=O)C(=O)[C@@]2(C#N)C(O)=C3C(=O)c4c(ccc(N(Cc5ccccc5)Cc5ccccc5)c4O)[C@H](N)[C@@]3(N)[C@H](O)[C@@]12N [BP] | ** (toxicities less than 25 μg/mL are represented by **) |
| CN(C)c1cc(NC(=O)OCC(C)(C)C)c(O)c2c1C[C@@]1(N)C[C@@]3(N)[C@H](N(C)C)C(O)=C(C(N)=O)C(=O)[C@@]3(C#N)C(O)=C1C2=O [DG] | ** (toxicities less than 25 μg/mL are represented by **) |
| CCOc1ccc(-c2ccc(O)c3c2C[C@@]2(N)C[C@@]4(N)[C@H](N(C)C)C(O)=C(C(N)=O)C(=O)[C@@]4(C#N)C(O)=C2C3=O)cc1CNC(=O)NC(C)(C)C [QG] | * (toxicities greater than >25 μg/ml are represented by *) |
| CN(C)[C@@H]1C(O)=C(C(N)=O)C(=O)[C@@]2(C#N)C(O)=C3C(=O)c4c(cc(Br)c(N)c4O)[C@H](N)[C@@]3(N)[C@H](O)[C@@]12N [HY] | * (toxicities greater than >25 μg/ml are represented by *) |
| CC(=O)OCCCC(C)(C)c1ccc2c(c1O)C(=O)C1=C(O)[C@]3(C#N)C(=O)C(C(N)=O)=C(O)[C@@H](N(C)C)[C@]3(N)[C@@H](O)[C@]1(N)[C@H]2N [BA] | ** (toxicities less than 25 μg/mL are represented by **) |

| SMILES | In Vitro Cytotoxicity |
| --- | --- |
| CN(C)[C@@H]1C(O)=C(C(N)=O)C(=O)[C@@]2(C#N)C(O)=C3C(=O)c4c(O)c(CN)cc(-c5ccccc5)c4C[C@@]3(N)C[C@@]12N [RO] | * (toxicities greater than >25 μg/ml are represented by *) |
| CN(C)[C@@H]1C(O)=C(C(N)=O)C(=O)[C@@]2(C#N)C(O)=C3C(=O)c4c(ccc(/C=C/C(=O)O)c4O)[C@H](O)[C@@]3(N)[C@H](O)[C@@]12N [AV] | ** (toxicities less than 25 μg/mL are represented by **) |
| CN(C)[C@@H]1C(O)=C(C(N)=O)C(=O)[C@@]2(C#N)C(O)=C3C(=O)c4c(O)ccc(/C=C/c5ccccn5)c4C[C@@]3(N)C[C@@]12N [FA] | ** (toxicities less than 25 μg/mL are represented by **) |
| CN(C)c1cc(C#CCNS(C)(=O)=O)c(O)c2c1C[C@@]1(N)C[C@@]3(N)[C@H](N(C)C)C(O)=C(C(N)=O)C(=O)[C@@]3(C#N)C(O)=C1C2=O [IP] | * (toxicities greater than >25 μg/ml are represented by *) |
| CC(C)c1ccc(CNc2cc(N(C)C)c3c(c2O)C(=O)C2=C(O)[C@]4(C#N)C(=O)C(C(N)=O)=C(O)[C@@H](N(C)C)[C@]4(N)C[C@]2(N)C3)cc1 [TV] | ** (toxicities less than 25 μg/mL are represented by **) |
| CN(C)CC#Cc1ccc(O)c2c1C[C@@]1(N)C[C@@]3(N)[C@H](N(C)C)C(O)=C(C(N)=O)C(=O)[C@@]3(C#N)C(O)=C1C2=O [FJ] | ** (toxicities less than 25 μg/mL are represented by **) |
| CCCCOCCCNCc1ccc(OC)c(-c2ccc(O)c3c2C[C@@]2(N)C[C@@]4(N)[C@H](N(C)C)C(O)=C(C(N)=O)C(=O)[C@@]4(C#N)C(O)=C2C3=O)c1 [NL] | * (toxicities greater than >25 μg/ml are represented by *) |
| CN(C)c1cc(-c2ccc(F)c(F)c2)c(O)c2c1C[C@@]1(N)C[C@@]3(N)[C@H](N(C)C)C(O)=C(C(N)=O)C(=O)[C@@]3(C#N)C(O)=C1C2=O [EY] | ** (toxicities less than 25 μg/mL are represented by **) |
| CC(N)CNCc1cc(N(C)C)c2c(c1O)C(=O)C1=C(O)[C@]3(C#N)C(=O)C(C(N)=O)=C(O)[C@@H](N(C)C)[C@]3(N)C[C@]1(N)C2 (stereo partly shown) [SV] | * (toxicities greater than >25 μg/ml are represented by *) |
| CN(C)CCCc1ccc(O)c2c1C[C@@]1(N)C[C@@]3(N)[C@H](N(C)C)C(O)=C(C(=O)NC(C)(C)C)C(=O)[C@@]3(C#N)C(O)=C1C2=O [HH] | * (toxicities greater than >25 μg/ml are represented by *) |
| CN(C)[C@@H]1C(O)=C(C(N)=O)C(=O)[C@@]2(C#N)C(O)=C3C(=O)c4c(O)ccc(-c5ccc(CN6CCOCC6)cc5)c4C[C@@]3(N)C[C@@]12N [HT] | * (toxicities greater than >25 μg/ml are represented by *) |
| CCOC(=O)Nc1cc(N(C)C)c2c(c1O)C(=O)C1=C(O)[C@]3(C#N)C(=O)C(C(N)=O)=C(O)[C@@H](N(C)C)[C@]3(N)C[C@]1(N)C2 [KH] | ** (toxicities less than 25 μg/mL are represented by **) |
| CN(C)c1cc(C#CC2=CCCC2)c(O)c2c1C[C@@]1(N)C[C@@]3(N)[C@H](N(C)C)C(O)=C(C(N)=O)C(=O)[C@@]3(C#N)C(O)=C1C2=O [KN] | ** (toxicities less than 25 μg/mL are represented by **) |
| COc1ccc(CNCCc2ccccc2)cc1-c1ccc(O)c2c1C[C@@]1(N)C[C@@]3(N)[C@H](N(C)C)C(O)=C(C(N)=O)C(=O)[C@@]3(C#N)C(O)=C1C2=O [NH] | ** (toxicities less than 25 μg/mL are represented by **) |
| CCCCCC(=O)c1ccc(O)c2c1C[C@@]1(N)C[C@@]3(N)[C@H](N(C)C)C(O)=C(C(N)=O)C(=O)[C@@]3(C#N)C(O)=C1C2=O [MO] | ** (toxicities less than 25 μg/mL are represented by **) |
| CN(C)[C@@H]1C(O)=C(C(N)=O)C(=O)[C@@]2(C#N)C(O)=C3C(=O)c4c(O)ccc(/C=C/c5ccc(Cl)cc5)c4C[C@@]3(N)C[C@@]12N [GV] | * (toxicities greater than >25 μg/ml are represented by *) |
| CSc1ccc(OC(=O)Nc2cc(N(C)C)c3c(c2O)C(=O)C2=C(O)[C@]4(C#N)C(=O)C(C(N)=O)=C(O)[C@@H](N(C)C)[C@]4(N)C[C@]2(N)C3)cc1 [KR] | * (toxicities greater than >25 μg/ml are represented by *) |
| CN(C)c1cc(NC(=O)OC(C)(C)C)c(O)c2c1C[C@@]1(N)C[C@@]3(N)[C@H](N(C)C)C(O)=C(C(N)=O)C(=O)[C@@]3(C#N)C(O)=C1C2=O [DN] | ** (toxicities less than 25 μg/mL are represented by **) |
| CCN(CC)Cc1ccc(OC)c(-c2ccc(O)c3c2C[C@@]2(N)C[C@@]4(N)[C@H](N(C)C)C(O)=C(C(N)=O)C(=O)[C@@]4(C#N)C(O)=C2C3=O)c1 [LR] | * (toxicities greater than >25 μg/ml are represented by *) |
| CN(C)[C@@H]1C(O)=C(C(N)=O)C(=O)[C@@]2(C#N)C(O)=C3C(=O)c4c(O)ccc(C#Cc5ccccc5F)c4C[C@@]3(N)C[C@@]12N [GS] | ** (toxicities less than 25 μg/mL are represented by **) |
